Test results from paper PMC3646166, “Comparison of Aqueous and 1-Octanol Solubility as well as Liquid–Liquid Distribution of Acyclovir Derivatives and Their Complexes with Hydroxypropyl-β-Cyclodextrin” (Journal of Solution Chemistry, 2013).
Values after ≈ are worked out from the molar mass of the structure shown. Like-named read-outs stand apart in the source and are kept apart here.

Key:
[1] = Solubility in buffered cyclodextrin solutions (excess method of Higuchi and Connors); format: physicochemical; details: phosphate buffer saturated with 1-octanol, aqueous buffer, thermodynamic from solid, pH = 7.0, 37 °C, read-out: Solubility, C 6-Ph-O-Me-TACV
[2] = Solubility in water or 1-octanol (saturated solutions, UV-Vis); format: physicochemical; details: for solubility: thermodynamic from solid, water
Procedure: The sample of substance examined (10 mg or 80 mg for 6-Me-TACV) was placed in a glass ampoule and double-distilled, deionized water (Millipore, Elix 5 purifier), or pure anhydrous 1-octanol (Sigma 99 %) was added. To attain thermodynamic equilibrium, the solute and the solvent were mixed continuously for a minimum of 4 days at a speed of 25 rpm. After the experiment was completed, the sample was centrifuged at 40,000 rpm for 40 min at 25 ± 0.1 °C, the supernatant liquid was collected, diluted, and its concentration determined with a UV–Vis (Varian Carry IE) spectrophotometer. The experiments were repeated at least three times for each solubility.

HSV-1 and HSV-2 viruses = test system: HSV-1 and HSV-2 viruses; parameters: method as in PMID 7932543; details: towards HSV-1 and HSV-2 viruses ref 8; cited from earlier work
[3] = Solubility in buffered cyclodextrin solutions (excess method of Higuchi and Connors); format: physicochemical; parameters: Stability constant K s of HP-β-CD complex: unit not given here; details: for Correlation parameter a (Eq. 2, Cs = a + b·CCD) / Correlation parameter b (Eq. 2, Cs = a + b·CCD): buffered HP-β-CD solutions; for solubility / solubility at 7 days: thermodynamic from solid, read-out: Solubility, C 6-Ph-O-Me-TACV
Procedure: Solubilities of the studied compounds was ensured according to the excess method of Higuchi and Connors. […] An excess amount of compounds 4-9 and 11-12 was added to 1.5 mL of aqueous phosphate buffer (concentration of buffer was equal 0.067 mol·dm^-3) solutions, (pH = 5.5 or 7.0) containing various concentration of HP-β-CD. The cyclodextrin concentration changed in the range of 10^-3 to 2 × 10^-2 mol·dm^-3. The suspensions were shaken in screw-capped plastic vials in a water bath thermostat with the volume of 60 dm^3 (home made apparatus by IChF PAN) at 25 and 37 °C. After 7 days equilibrium was reached and then the suspensions were centrifuged and the absorbance of the studied compounds was measured by UV-Vis spectrophotometry using a Shimadzu UV 2401 PC Spectrometer equipped with a thermostatically controlled cell compartment. During the measurement of absorbance, a buffered-solution of HP-β-CD, of the same concentration as in the studied solution, was always put as the reference. The average values of at least three independent determinations of the absorbance were used for calculation of the concentrations of the particular acyclovir derivatives. […] The main reason for the low solubility of tricyclic acyclovir derivatives with aromatic groups in water is the high hydrophobicity of these substituents. Use of cyclodextrins, which can include aromatic groups into their cavity, may enhance the aqueous solubility of such compounds. For this purpose we used several cyclodextrins and hydroxypropyl-β-cyclodextrin was chosen as being more efficient for complexating the tricyclic acyclovir derivatives. The investigations were performed, for chosen compounds, in various cyclodextrin HP-β-CD, buffered solutions (pH = 5.5 and 7.0) at 25 and 37 °C. […] Values of the correlation parameters a and b for tricyclic acyclovir derivatives complexed by cyclodextrin are presented in Table 3. […] The stability constants of the inclusion complexes between HP-β-CD and acyclovir derivatives have been calculated according to the Higuchi-Connors method using:3 K=b/C0(1-b) where C 0 is the solubility of the sample in solutions without cyclodextrin, obtained by determination of saturated solution concentration of acyclovir derivative solutions. […] These two values can differ, but in our study are very close to each other.

[4] = Extraction experiments, 1-octanol-water partition coefficient; format: physicochemical; details: 25 °C, read-out: Partition coefficient 1-octanol–water, P oc/w (converted)
Procedure: The equipment described above was also used for the determination of the 1-octanol-water partition coefficients. […] The partition coefficient was evaluated as:1 Poc/w=Coc/Cw where C oc and C w are the molar concentrations of the solute in the 1-octanol and water phases, respectively. The correctness of the P oc/w value of each compound was verified by checking the mass balance of the starting amount of the substance and the total amount of the substance partitioned between the two phases.

solubility at 7 days [1]: 139 µM (≈ 49.4 µg/mL)
Solubility ratio in 1-octanol and water, C oc/C w ([2]; 25 °C): 7.62
Solubility ratio in 1-octanol saturated with water and water saturated with 1-octanol, C ocw/C woc ([2]; 25 °C): 2.84
solubility ([2]; 25 °C (Table 1), read-out: Solubility in water, C w): 53 µM (≈ 18.8 µg/mL)
solubility ([2]; water saturated with 1-octanol, 25 °C, read-out: Solubility in water saturated with 1-octanol, C woc): 135 µM (≈ 48 µg/mL)
solubility ([2]; 35 °C, read-out: Aqueous solubility, C w): 144 µM (≈ 51.2 µg/mL)
solubility ([2]; 45 °C, read-out: Aqueous solubility, C w): 465 µM (≈ 165 µg/mL)
Correlation parameter a (Eq. 2, Cs = a + b·CCD) ([3]; pH = 5.5, 25 °C): 5.23 × 10^−5
Correlation parameter b (Eq. 2, Cs = a + b·CCD) ([3]; pH = 5.5, 25 °C): 1.00 × 10^−2
Correlation parameter a (Eq. 2, Cs = a + b·CCD) ([3]; pH = 5.5, 37 °C): 9.95 × 10^−5
Correlation parameter b (Eq. 2, Cs = a + b·CCD) ([3]; pH = 5.5, 37 °C): 1.41 × 10^−2
Correlation parameter a (Eq. 2, Cs = a + b·CCD) ([3]; pH = 7.0, 25 °C): 5.68 × 10^−5
Correlation parameter b (Eq. 2, Cs = a + b·CCD) ([3]; pH = 7.0, 25 °C): 1.06 × 10^−2
Correlation parameter a (Eq. 2, Cs = a + b·CCD) ([3]; pH = 7.0, 37 °C): 1.37 × 10^−4
Correlation parameter b (Eq. 2, Cs = a + b·CCD) ([3]; pH = 7.0, 37 °C): 1.30 × 10^−2
solubility ([3]; organic solvent or mixture, 1-Octanol saturated with buffer, pH = 5.5, 25 °C): 473 µM (≈ 168 µg/mL)
solubility ([3]; organic solvent or mixture, 1-Octanol saturated with buffer, pH = 5.5, 37 °C): 741 µM (≈ 263 µg/mL)
solubility at 7 days ([3]; organic solvent or mixture, 1-Octanol saturated with buffer, pH = 7.0, 25 °C): 485 µM (≈ 172 µg/mL)
solubility at 7 days ([3]; organic solvent or mixture, 1-Octanol saturated with buffer, pH = 7.0, 37 °C): 882 µM (≈ 313 µg/mL)
Stability constant K s of HP-β-CD complex ([3]; pH = 5.5, 25 °C): 213 (±6) dm·mol^−1
Stability constant K s of HP-β-CD complex ([3]; pH = 5.5, 37 °C): 144 (±5)
Stability constant K s of HP-β-CD complex ([3]; pH = 7, 25 °C): 189 (±6) dm·mol^−1
Stability constant K s of HP-β-CD complex ([3]; pH = 7, 37 °C): 96 (±4)
solubility at 7 days ([3]; phosphate buffer saturated with 1-octanol, aqueous buffer, Buffer saturated with 1-octanol, pH = 5.5, 25 °C): 74.2 µM (≈ 26.4 µg/mL)
solubility at 7 days ([3]; phosphate buffer saturated with 1-octanol, aqueous buffer, Buffer saturated with 1-octanol, pH = 5.5, 37 °C): 127 µM (≈ 45.1 µg/mL)
solubility at 7 days ([3]; phosphate buffer saturated with 1-octanol, aqueous buffer, Buffer saturated with 1-octanol, pH = 7.0, 25 °C): 58.7 µM (≈ 20.9 µg/mL)
solubility at 7 days ([3]; phosphate buffer saturated with 1-octanol, aqueous with cosolvent or surfactant or cyclodextrin, Buffer saturated with 1-octanol + HP-β-CD (2 × 10^−2 mol·dm^−3), pH = 5.5, 25 °C): 40.3 µM
solubility at 7 days ([3]; phosphate buffer saturated with 1-octanol, aqueous with cosolvent or surfactant or cyclodextrin, Buffer saturated with 1-octanol + HP-β-CD (2 × 10^−2 mol·dm^−3), pH = 5.5, 37 °C): 77 µM
solubility at 7 days ([3]; phosphate buffer saturated with 1-octanol, aqueous with cosolvent or surfactant or cyclodextrin, Buffer saturated with 1-octanol + HP-β-CD (2 × 10^−2 mol·dm^−3), pH = 7.0, 25 °C): 40.3 µM
solubility at 7 days ([3]; phosphate buffer saturated with 1-octanol, aqueous with cosolvent or surfactant or cyclodextrin, Buffer saturated with 1-octanol + HP-β-CD (2 × 10^−2 mol·dm^−3), pH = 7.0, 37 °C): 80.6 µM
solubility at 7 days ([3]; phosphate buffer with HP-β-CD, aqueous with cosolvent or surfactant or cyclodextrin, Buffer + HP-β-CD (2 × 10^−2 mol·dm^−3), pH = 5.5, 25 °C): 244 µM
solubility at 7 days ([3]; phosphate buffer with HP-β-CD, aqueous with cosolvent or surfactant or cyclodextrin, Buffer + HP-β-CD (2 × 10^−2 mol·dm^−3), pH = 5.5, 37 °C): 374 µM
solubility at 7 days ([3]; phosphate buffer with HP-β-CD, aqueous with cosolvent or surfactant or cyclodextrin, Buffer + HP-β-CD (2 × 10^−2 mol·dm^−3), pH = 7.0, 25 °C): 265 µM
solubility at 7 days ([3]; phosphate buffer with HP-β-CD, aqueous with cosolvent or surfactant or cyclodextrin, Buffer + HP-β-CD (2 × 10^−2 mol·dm^−3), pH = 7.0, 37 °C): 391 µM
solubility at 7 days ([3]; phosphate buffer, aqueous buffer, Buffer, pH = 5.5, 25 °C): 48.2 µM (≈ 17.1 µg/mL)
solubility at 7 days ([3]; phosphate buffer, aqueous buffer, Buffer, pH = 5.5, 37 °C): 99.4 µM (≈ 35.3 µg/mL)
solubility at 7 days ([3]; phosphate buffer, aqueous buffer, Buffer, pH = 7.0, 25 °C): 55 µM (≈ 19.5 µg/mL)
solubility at 7 days ([3]; phosphate buffer, aqueous buffer, Buffer, pH = 7.0, 37 °C): 136 µM (≈ 48.3 µg/mL)
logP at 2 days [4]: 0.386
Structure (SMILES): COc1ccc(-c2cn3c(=O)c4ncn(COCCO)c4nc3[nH]2)cc1 [Compound 11]
Antiherpetic activity relative to parent acyclovir (concentrations required to reduce virus-induced cytopathicity by 50 %) (HSV-1 and HSV-2 viruses): 2–7 times higher
